Assay results reported in patent US20260021167A1, “COMPOSITIONS AND METHODS FOR TREATING OR PREVENTING NEURODEGENERATIVE DISEASES” (Delaware State University, priority 2022, published 2026).
Where two headings read alike, the source gives them in different places.

How the values were obtained:
Type in all cases: cell-based, rat
N27 cells [1] = assay: Cytotoxicity (LDH) assay after PFF exposure
Description: (§1) Cytotoxicity Assay. The lactate dehydrogenase (LDH) is a cytosolic enzyme that is released into the media during cellular stress and increased levels of cytotoxicity. The cytotoxicity assay was measured using reagents from the Pierce LDH Cytotoxicity Assay Kit (88954, Thermo). For the assay, 50 μL of media from each well after PFF exposure, followed by SENP-1 treatment, was put into wells of a new 96-well plate. The LDH reagents were prepared according to the protocol provided, and 50 μL of the LDH reagent was mixed into each well. The total 100 μL of media containing LDH and its reagent were incubated at 37° C. for 30 min, followed by the application of a stop solution. The mixture was analyzed using a spectrophotometer (SpectraMax M5e, Molecular devices) at 490 nm with a reference wavelength of 680 nm.
In this study, numerous commercially available SENP-1 inhibitors were tested for the recovery effects from preformed fibrils of alpha-synuclein (PFF)-induced PD models in vitro. The screening process includes several SENP-1 inhibitors, including specific SENP-1 inhibitors (e.g., SUMO-2 Aldehyde, Momordin lc, streptonigrin, hinokiflavonem, and siRNAs of SENP-1) and nonspecific SENP-1 inhibitors (e.g., oleanolic acid, gallic acid), in N27 dopaminergic cells after the exposure of PFF for 24 hrs.

N27 cells [2] = assay: Cell viability (MTT) assay after PFF exposure; conditions: N27 cells after PFF (1 μg/ml) exposure for 24 h; compared to PFF only control
Excerpt: (§2) Cell Viability Assay. The MTT assay is a colorimetric assay that is based on the conversion of water-soluble MTT (3-(4,5-dimethylthiazol-2-yl)-2,5-diphenyltetrazolium bromide) into formazan crystal by mitochondrial dehydrogenase enzymes, soluble in 100% DMSO. The resulting solution is purple in color, and the color intensity is proportional to the viable cells for each well in a 96-well plate. A variety of SENP-1 inhibitors, such as SUMO-2 aldehyde, Momordin lc, streptonigrin, hinokiflavone, oleanolic acid and siRNA of SENP-1, were treated in N27 cells after PFF (1 μg/ml) exposure for 24 h. After adding 5 mM MTT dye to cells, the color intensity in MTT assays was measured using a spectrophotometer (SpectraMax M5e, Molecular devices, Dover, USA), at 570 nm with a reference wavelength of 630 nm. The cells were incubated with the MTT reagent (ab211091, Abcam) at 37° C. for 3 h, followed by solubilizing the formazan crystals in solution.
In this study, numerous commercially available SENP-1 inhibitors were tested for the recovery effects from preformed fibrils of alpha-synuclein (PFF)-induced PD models in vitro. […]

N27 cells [3] = assay: ROS level (CellROX deep red) after PFF treatment; conditions: compared to PFF only control
Description: (§3) ROS Levels and Thioflavin-T Assessment. The reactive oxygen species (ROS) is a released byproduct during oxidative stress. On the other hand, thioflavin-T is an assay used to understand the level of protein aggregation that can be detrimental to cell survival. In order to assess the level of oxidative stress, all the SENP-1 inhibitors treated cells were incubated in media containing 5 μg/mL of the ROS reagent CellROX deep red reagent (C10422, Thermo Fisher Scientific) and 25 μg/mL of thioflavin-T reagent (CAS: 2390-54-7, Acros Organics) at 37° C. for 30 min. The cells were then washed 3 times with warm phosphate-buffered saline (PBS) without Ca^2+ or Mg^2+ (137 mM NaCl, 2.7 mM KCl, 4.3 mM Na2HPO4, and 1.47 mM KH2PO4), and several images from each well were collected using EVOS FL Cell Imaging Systems (Invitrogen, MA, USA). A minimum of 2 wells were dedicated to each group, and the experiments were repeated 3-4 times independently (total replicated: n=8-10/group). The intensity of red fluorescence corresponding to ROS levels and green labels corresponding to protein aggregation was analyzed by blinded raters using ImageJ.

N27 dopaminergic cells = assay: Screening of SENP-1 inhibitors (LDH, MTT, ROS, Thioflavin-T) in PFF-induced PD model in vitro; conditions: N27 dopaminergic cells after exposure to PFF for 24 hrs
Excerpt: as §2, §1
as §3, with “A minimum of 2 wells were dedicated to each group, and the experiments were repeated 3-4 times independently (total replicated: n=8-10/group).” left out, “ImageJ. […]” for “ImageJ.”

Compound | cytotoxicity derived from PFF (LDH assay) (N27 cells [1]) | cell viability from PFF-mediated toxicity (MTT assay) (N27 cells [2]) | level of ROS (N27 cells [3]) | cytotoxicity derived from PFF (LDH assay) (N27 cells [1]; N27 cells, PFF treatment, compared to PFF only control) | efficacy in preventing protein aggregation-mediated damage and reversing PFF-induced damage (LDH, MTT, ROS, Thioflavin-T assays) (N27 dopaminergic cells)
O=c1cc(-c2ccc(Oc3c(O)cc4oc(-c5ccc(O)cc5)cc(=O)c4c3O)cc2)oc2cc(O)cc(O)c12 [Hinokiflavone, hinokiflavone] | significantly reduced the cytotoxicity |  |  |  | 
COC1=C(N)C(=O)c2nc(-c3nc(C(=O)O)c(C)c(-c4ccc(OC)c(OC)c4O)c3N)ccc2C1=O [Streptonigrin, streptonigrin] |  | significantly enhanced the cell viability | reduced the level of ROS | significantly reduced the cytotoxicity | clearly efficacious
O=C(O)c1cc(O)c(O)c(O)c1 [gallic acid] |  |  |  |  | did not show an efficacy
CC1(C)CC[C@]2(C(=O)O)CC[C@]3(C)C(=CC[C@@H]4[C@@]5(C)CC[C@H](O)C(C)(C)[C@@H]5CC[C@]43C)[C@@H]2C1 [oleanolic acid] |  |  |  |  | did not show an efficacy
